Experimental data: ChEMBL document CHEMBL4177608, “Design and synthesis of benzimidazole-based Rho kinase inhibitors for the treatment of glaucoma” (Bioorg Med Chem, 2017)
Values after ≈ are worked out from the molar mass of the structure shown.

How the values were obtained:
[1] = 1-Octanol/water partition coefficient, log P of compound at 2 mg after 24 hrs by spectrophotometry based shake flask method; type: physicochemical
[2] = Antioxidant activity assessed as DPPH free radical scavenging activity at 5 ug/ml after 30 mins by spectrophotometric analysis; type: functional
[3] = Antioxidant activity assessed as DPPH free radical scavenging activity at 25 ug/ml after 30 mins by spectrophotometric analysis; type: functional
[4] = Antioxidant activity assessed as DPPH free radical scavenging activity at 50 ug/ml after 30 mins by spectrophotometric analysis; type: functional
[5] = Antioxidant activity assessed as DPPH free radical scavenging activity at 100 ug/ml after 30 mins by spectrophotometric analysis; type: functional
[6] = Antioxidant activity assessed as DPPH free radical scavenging activity at 150 ug/ml after 30 mins by spectrophotometric analysis; type: functional
[7] = Antioxidant activity assessed as DPPH free radical scavenging activity at 200 ug/ml after 30 mins by spectrophotometric analysis; type: functional
[8] = Antioxidant activity assessed as DPPH free radical scavenging activity after 30 mins by spectrophotometric analysis; type: functional
[9] = organism: Rattus norvegicus; assay: Reduction in intraocular pressure in Wistar rat model of dexamethasone-induced elevated IOP assessed as change in intraocular pressure at 1 % w/v after 0.5 hrs by tonometry (reference value: 0%); type: functional; parameters: scale not given: the % may be the effect or the level left
[10] = organism: Rattus norvegicus; assay: Reduction in intraocular pressure in Wistar rat model of dexamethasone-induced elevated IOP assessed as change in intraocular pressure at 1 % w/v after 1 hr by tonometry (reference value: 0%); type: functional; parameters: scale not given: the % may be the effect or the level left
[11] = organism: Rattus norvegicus; assay: Reduction in intraocular pressure in Wistar rat model of dexamethasone-induced elevated IOP assessed as change in intraocular pressure at 1 % w/v after 1.5 hrs by tonometry (reference value: 0%); type: functional; parameters: scale not given: the % may be the effect or the level left
[12] = organism: Rattus norvegicus; assay: Reduction in intraocular pressure in Wistar rat model of dexamethasone-induced elevated IOP assessed as change in intraocular pressure at 1 % w/v after 2 hrs by tonometry (reference value: 0%); type: functional; parameters: scale not given: the % may be the effect or the level left
[13] = organism: Rattus norvegicus; assay: Reduction in intraocular pressure in Wistar rat model of dexamethasone-induced elevated IOP assessed as change in intraocular pressure at 1 % w/v after 2.5 hrs by tonometry (reference value: 0%); type: functional; parameters: scale not given: the % may be the effect or the level left
[14] = organism: Rattus norvegicus; assay: Reduction in intraocular pressure in Wistar rat model of dexamethasone-induced elevated IOP assessed as change in intraocular pressure at 1 % w/v after 3 hrs by tonometry (reference value: 0%); type: functional; parameters: scale not given: the % may be the effect or the level left
[15] = organism: Rattus norvegicus; assay: Reduction in intraocular pressure in Wistar rat model of dexamethasone-induced elevated IOP assessed as change in intraocular pressure at 1 % w/v after 4 hrs by tonometry (reference value: 0%); type: functional; parameters: scale not given: the % may be the effect or the level left
[16] = organism: Rattus norvegicus; assay: Reduction in intraocular pressure in Wistar rat model of dexamethasone-induced elevated IOP assessed as change in intraocular pressure at 1 % w/v after 5 hrs by tonometry (reference value: 0%); type: functional; parameters: scale not given: the % may be the effect or the level left
[17] = organism: Rattus norvegicus; assay: Reduction in intraocular pressure in Wistar rat model of dexamethasone-induced elevated IOP assessed as change in intraocular pressure at 1 % w/v after 6 hrs by tonometry (reference value: 0%); type: functional; parameters: scale not given: the % may be the effect or the level left
[18] = organism: Rattus norvegicus; assay: Reduction in intraocular pressure in Wistar rat model of dexamethasone-induced elevated IOP assessed as change in intraocular pressure in contralateral eye at 1 % w/v after 0.5 hrs by tonometry (reference value: 0%); type: ADME, organism-based; parameters: scale not given: the % may be the effect or the level left; conditions: in vivo, topical_or_ocular
[19] = organism: Rattus norvegicus; assay: Reduction in intraocular pressure in Wistar rat model of dexamethasone-induced elevated IOP assessed as change in intraocular pressure in contralateral eye at 1 % w/v after 1 hr by tonometry (reference value: 0%); type: ADME, organism-based; parameters: scale not given: the % may be the effect or the level left; conditions: in vivo, topical_or_ocular
[20] = organism: Rattus norvegicus; assay: Reduction in intraocular pressure in Wistar rat model of dexamethasone-induced elevated IOP assessed as change in intraocular pressure in contralateral eye at 1 % w/v after 1.5 hrs by tonometry (reference value: 0%); type: ADME, organism-based; parameters: scale not given: the % may be the effect or the level left; conditions: in vivo
[21] = organism: Rattus norvegicus; assay: Reduction in intraocular pressure in Wistar rat model of dexamethasone-induced elevated IOP assessed as change in intraocular pressure in contralateral eye at 1 % w/v after 2 hrs by tonometry (reference value: 0%); type: ADME, organism-based; parameters: scale not given: the % may be the effect or the level left; conditions: in vivo
[22] = organism: Rattus norvegicus; assay: Reduction in intraocular pressure in Wistar rat model of dexamethasone-induced elevated IOP assessed as change in intraocular pressure in contralateral eye at 1 % w/v after 2.5 hrs by tonometry (reference value: 0%); type: ADME, organism-based; parameters: scale not given: the % may be the effect or the level left; conditions: in vivo
[23] = organism: Rattus norvegicus; assay: Reduction in intraocular pressure in Wistar rat model of dexamethasone-induced elevated IOP assessed as change in intraocular pressure in contralateral eye at 1 % w/v after 3 hrs by tonometry (reference value: 0%); type: ADME, organism-based; parameters: scale not given: the % may be the effect or the level left; conditions: in vivo
[24] = organism: Rattus norvegicus; assay: Reduction in intraocular pressure in Wistar rat model of dexamethasone-induced elevated IOP assessed as change in intraocular pressure in contralateral eye at 1 % w/v after 4 hrs by tonometry (reference value: 0%); type: ADME, organism-based; parameters: scale not given: the % may be the effect or the level left; conditions: in vivo
[25] = organism: Rattus norvegicus; assay: Reduction in intraocular pressure in Wistar rat model of dexamethasone-induced elevated IOP assessed as change in intraocular pressure in contralateral eye at 1 % w/v after 5 hrs by tonometry (reference value: 0%); type: ADME, organism-based; parameters: scale not given: the % may be the effect or the level left; conditions: in vivo
[26] = organism: Rattus norvegicus; assay: Reduction in intraocular pressure in Wistar rat model of dexamethasone-induced elevated IOP assessed as change in intraocular pressure in contralateral eye at 1 % w/v after 6 hrs by tonometry (reference value: 0%); type: ADME, organism-based; parameters: scale not given: the % may be the effect or the level left; conditions: in vivo
[27] = organism: Rattus norvegicus; assay: Reduction in intraocular pressure in Wistar rat model of dexamethasone-induced elevated IOP assessed as onset time for reduction in intraocular pressure at 1 % w/v by tonometry; type: functional
[28] = organism: Rattus norvegicus; assay: Reduction in intraocular pressure in Wistar rat model of dexamethasone-induced elevated IOP assessed as peak effect time for reduction in intraocular pressure at 1 % w/v by tonometry; type: functional, organism-based
[29] = organism: Rattus norvegicus; assay: Reduction in intraocular pressure in Wistar rat model of dexamethasone-induced elevated IOP assessed as reduction in intraocular pressure at peak effect time at 1 % w/v by tonometry; type: functional; parameters: scale not given: the % may be the effect or the level left

Row | Structure (SMILES) | logP at 24 h [1] | Activity [2] [%] | Activity [3] [%] | Activity [4] [%] | Activity [5] [%] | Activity [6] [%] | Activity [7] [%] | IC50 [8] [mg/L] | Activity [9] [%] | Activity [10] [%] | Activity [11] [%] | Activity [12] [%] | Activity [13] [%] | Activity [14] [%] | Activity [15] [%] | Activity [16] [%] | Activity [17] [%] | Activity [18] [%] | Activity [19] [%] | Activity [20] [%] | also measured
1 | COc1ccc(N2CCN(CC(=O)Nc3nc4ccccc4[nH]3)CC2)cc1 | 2.65 | 7.24 | 13.3 | 25.8 | 38.9 | 53.2 | 63.7 | 144.19 (≈ 395 µM) | 3.8 | 5.67 | 6.15 | 9.42 | 15.32 | 10.08 | 7 | 3.37 | 1.33 | 1.2 | 2.07 | 2.83 | Activity [21]: 3.57%; Activity [22]: 3.97%; Activity [23]: 2%; Activity [24]: 0.43%; Activity [25]: 0%; Activity [26]: 0%; Time [27]: 0.5 h; Tmax [28]: 2.5 h; Activity [29]: 46.92%
2 | O=C(CN1CCN(c2ccc([N+](=O)[O-])cc2)CC1)Nc1nc2ccccc2[nH]1 | 1.94 | 16.1 | 33.9 | 44.8 | 51.7 | 64.9 | 76.7 | 95.49 (≈ 251 µM) | 3.33 | 5.85 | 7.68 | 11.88 | 16 | 10.52 | 7.82 | 4.75 | 1.2 | 0.83 | 1.2 | 3.5 | Activity [21]: 4.87%; Activity [22]: 5.23%; Activity [23]: 4.2%; Activity [24]: 1.6%; Activity [25]: 0%; Activity [26]: 0%; Time [27]: 0.5 h; Tmax [28]: 2.5 h; Activity [29]: 51.56%
3 | O=C(CN1CCN(C(=O)c2ccco2)CC1)Nc1nc2ccccc2[nH]1 | 2.02 | 14.5 | 23.4 | 35.9 | 49 | 59 | 71 | 116.48 (≈ 330 µM) | 3.9 | 4.6 | 8.8 | 11.1 | 14.92 | 8.63 | 6.6 | 4.47 | 1.27 | 0.4 | 1.6 | 2.03 | Activity [21]: 3.1%; Activity [22]: 4.15%; Activity [23]: 2.3%; Activity [24]: 0.8%; Activity [25]: 0%; Activity [26]: 0%; Time [27]: 0.5 h; Tmax [28]: 2 h; Activity [29]: 48.33%
4 | CN1CCN(CC(=O)Nc2nc3ccccc3[nH]2)CC1 | 1.67 | 11 | 19.9 | 33.5 | 45 | 54.3 | 61.6 | 137.54 (≈ 503 µM) | 5.47 | 9.77 | 11.95 | 12.97 | 13.57 | 10.3 | 4.45 | 1.35 | 0.3 | 1.08 | 2.08 | 4 | Activity [21]: 5.75%; Activity [22]: 6.57%; Activity [23]: 2.15%; Activity [24]: 0.55%; Activity [25]: 0%; Activity [26]: 0%; Time [27]: 0.5 h; Tmax [28]: 2.5 h; Activity [29]: 44.68%
5 | O=C1O[C@H]([C@@H](O)CO)C(O)=C1O [ASCORBIC ACID] | – | 39.5 | 54.9 | 62.5 | 79.4 | 92.9 | 97.9 | 15.74 (≈ 89.4 µM) | – | – | – | – | – | – | – | – | – | – | – | – | –
6 | Cl.O=S(=O)(c1cccc2cnccc12)N1CCCNCC1 [FASUDIL HYDROCHLORIDE] | 1.73 | – | – | – | – | – | – | – | 4.62 | 5.4 | 10.17 | 16.67 | 9.71 | 9 | 7.8 | 3.42 | 0.65 | 0.97 | 1.95 | 3.3 | Activity [21]: 5.57%; Activity [22]: 4.62%; Activity [23]: 1.85%; Activity [24]: 0.3%; Activity [25]: 0%; Activity [26]: 0%; Time [27]: 0.5 h; Tmax [28]: 2 h; Activity [29]: 54.84%
